Source: ChEMBL document CHEMBL1201862, “PubChem BioAssay data set” (2004)
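Following 48 hours of exposure in 96-well plates, responses at five concentrations were used to interpolate endpoints linearly. The concentration for 50% growth inhibition is given as GI50.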 Active and inactive are the calls of the source. Rule as the data show it: active = GI50 up to about 1.1 µM and inactive = higher.

Legend:
Assay in all cases: NCI anticancer screen, dose series, 48 h
[1] = test system: COLO 205
[2] = test system: MCF7
[3] = test system: MOLT-4
[4] = test system: SNB-19
[5] = test system: SK-MEL-2
[6] = test system: SK-MEL-28
[7] = test system: HCT-15
[8] = test system: UO-31
[9] = test system: HCT-116
[10] = test system: HCC 2998
[11] = test system: MDA-MB-231
[12] = test system: OVCAR-5
[13] = test system: SF-295
[14] = test system: PC-3
[15] = test system: OVCAR-4
[16] = test system: NCI-H23
[17] = test system: 786-0
[18] = test system: DU-145
[19] = test system: OVCAR-3
[20] = test system: HOP-62
[21] = test system: A549
[22] = test system: IGROV-1
[23] = test system: SN12C
[24] = test system: LOX IMVI
[25] = test system: U-251
[26] = test system: HT-29
[27] = test system: ACHN
[28] = test system: EKVX
[29] = test system: HOP-92
[30] = test system: UACC-62
[31] = test system: RXF 393
[32] = test system: MDA-MB-435
[33] = test system: UACC-257
[34] = test system: SK-OV-3
[35] = test system: SR
[36] = test system: NCI-H226
[37] = test system: M14
[38] = test system: SK-MEL-5
[39] = test system: TK-10
[40] = test system: SF-539
[41] = test system: HL-60
[42] = test system: MDA-N
[43] = test system: CAKI-1
[44] = test system: BT-549
[45] = test system: CCRF-CEM
[46] = test system: RPMI-8226
[47] = test system: T47D

For `CN1C(=O)C(O)C[C@@H]1c1ccc(F)cc1` (some centres not stated), the GI50 [1] was > 100 µM (inactive), the GI50 [2] was > 100 µM (inactive) and the GI50 [3] was > 100 µM (inactive). For the same compound, the GI50 [4] was > 100 µM (inactive), the GI50 [5] was > 100 µM (inactive) and the GI50 [6] was > 100 µM (inactive). For the same compound, the GI50 [7] was over 100 µM, the GI50 [8] was > 100 µM (inactive) and the GI50 [9] was > 100 µM (inactive). For the same compound, the GI50 [10] was > 100 µM (inactive), the GI50 [11] was > 100 µM (inactive) and the GI50 [12] was > 100 µM (inactive). The GI50 [13] was > 100 µM (inactive), the GI50 [14] was > 100 µM (inactive) and the GI50 [15] was > 100 µM (inactive). For the same compound, the GI50 [16] was > 100 µM (inactive), the GI50 [17] was > 100 µM (inactive) and the GI50 [18] was > 100 µM (inactive). The GI50 [19] was > 100 µM (inactive), the GI50 [20] was > 100 µM (inactive) and the GI50 [21] was > 100 µM (inactive). The GI50 [22] was > 100 µM (inactive), the GI50 [23] was > 100 µM (inactive) and the GI50 [24] was > 100 µM (inactive). For the same compound, the GI50 [25] was > 100 µM (inactive), the GI50 [26] was > 100 µM (inactive) and the GI50 [27] was > 100 µM (inactive). For the same compound, the GI50 [28] was > 100 µM (inactive), the GI50 [29] was > 100 µM (inactive) and the GI50 [30] was > 100 µM (inactive). The GI50 [31] was > 100 µM (inactive), the GI50 [32] was > 100 µM (inactive) and the GI50 [33] was > 100 µM (inactive). For the same compound, the GI50 [34] was > 100 µM (inactive), the GI50 [35] was > 100 µM (inactive) and the GI50 [36] was > 100 µM (inactive). For the same compound, the GI50 [37] was > 100 µM (inactive), the GI50 [38] was > 100 µM (inactive) and the GI50 [39] was > 100 µM (inactive). The GI50 [40] was > 100 µM (inactive), the GI50 [41] was > 100 µM (inactive) and the GI50 [42] was > 100 µM (inactive). The GI50 [43] was > 100 µM (inactive), the GI50 [44] was > 100 µM (inactive) and the GI50 [45] was > 100 µM (inactive). For the same compound, the GI50 [46] was > 100 µM (inactive) and the GI50 [47] was > 100 µM (inactive).
